US5672715A, “Herbicidal substituted 3-aryl-pyrazoles” (Monsanto Company, priority 1995, dated 1997)

How the values were obtained:
Format in all cases: in vivo
Cocklebur [1] = assay: pre-emergence herbicide test; details: Xanthium strumarium, pre-emergence, 0.25 lb/A; read-out: % plant inhibition
Outline: (§1)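 Soil-applied pre-emergence screen: compound added to cover topsoil over sown seeds, pans held on greenhouse bench with subirrigation, % inhibition scored ~2 weeks later.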

Velvetleaf [2] = assay: pre-emergence herbicide test; details: Abutilon theophrasti, pre-emergence, 0.25 lb/A; read-out: % plant inhibition
Outline: as §1

Corn [3] = assay: pre-emergence herbicide test; details: Zea mays, pre-emergence, 0.25 lb/A; read-out: % plant inhibition
Outline: as §1

Downy Brome [4] = assay: pre-emergence herbicide test; details: Bromus tectorum, pre-emergence, 0.25 lb/A; read-out: % plant inhibition
Outline: as §1

Birdseye Speedwell [5] = assay: pre-emergence herbicide test; details: pre-emergence, 0.25 lb/A; read-out: % plant inhibition
Outline: as §1

Blackgrass [6] = assay: pre-emergence herbicide test; details: Alopecurus myosuroides, pre-emergence, 0.25 lb/A; read-out: % plant inhibition
Outline: as §1

Common Chickweed [7] = assay: pre-emergence herbicide test; details: pre-emergence, 0.25 lb/A; read-out: % plant inhibition
Outline: as §1

Rape [8] = assay: pre-emergence herbicide test; details: pre-emergence, 0.25 lb/A; read-out: % plant inhibition
Outline: as §1

Wheat [9] = assay: pre-emergence herbicide test; details: Triticum aestivum, pre-emergence, 0.25 lb/A; read-out: % plant inhibition
Outline: as §1

Soybean [10] = assay: pre-emergence herbicide test; details: Glycine max, pre-emergence, 0.25 lb/A; read-out: % plant inhibition
Outline: as §1

Green Foxtail [11] = assay: pre-emergence herbicide test; details: Setaria viridis, pre-emergence; 0.25 lb/A; read-out: % plant inhibition
Outline: as §1

Seedling Johnsongrass [12] = assay: pre-emergence herbicide test; details: Sorghum halepense, pre-emergence, 0.25 lb/A; read-out: % plant inhibition
Outline: as §1

Bedstraw Catchweed [13] = assay: pre-emergence herbicide test; details: Galium aparine, pre-emergence, 0.25 lb/A; read-out: % plant inhibition
Outline: as §1

Barnyardgrass [14] = assay: pre-emergence herbicide test; details: Echinochloa crus-galli, pre-emergence, 0.25 lb/A; read-out: % plant inhibition
Outline: as §1

Giant Foxtail [15] = assay: pre-emergence herbicide test; details: Setaria faberi, pre-emergence, 0.25 lb/A; read-out: % plant inhibition
Outline: as §1

Morning Glory [16] = assay: pre-emergence herbicide test; details: Ipomoea, pre-emergence, 0.25 lb/A; read-out: % plant inhibition
Outline: as §1

Wild Oats [17] = assay: pre-emergence herbicide test; details: Avena fatua, pre-emergence, 0.25 lb/A; read-out: % plant inhibition
Outline: as §1

Cocklebur [18] = assay: post-emergence herbicide test; details: Xanthium strumarium, post-emergence, 0.25 lb/A; read-out: % plant inhibition
Outline: (§2)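 Sown pans kept on a greenhouse bench with irrigation or subirrigation until plants reached two to three weeks, then sprayed at 170.3 kPa (10 psig). Spray mix held about 0.4% by volume emulsifier; total volume 1870 L/Ha. Result expressed as percent inhibition.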

Velvetleaf [19] = assay: post-emergence herbicide test; details: Abutilon theophrasti, post-emergence, 0.25 lb/A; read-out: % plant inhibition
Outline: as §2

Corn [20] = assay: post-emergence herbicide test; details: Zea mays, post-emergence, 0.25 lb/A; read-out: % plant inhibition
Outline: as §2

Downy Brome [21] = assay: post-emergence herbicide test; details: Bromus tectorum, post-emergence, 0.25 lb/A; read-out: % plant inhibition
Outline: as §2

Birdseye Speedwell [22] = assay: post-emergence herbicide test; details: post-emergence, 0.25 lb/A; read-out: % plant inhibition
Outline: as §2

Blackgrass [23] = assay: post-emergence herbicide test; details: Alopecurus myosuroides, post-emergence, 0.25 lb/A; read-out: % plant inhibition
Outline: as §2

Common Chickweed [24] = assay: post-emergence herbicide test; details: post-emergence, 0.25 lb/A; read-out: % plant inhibition
Outline: as §2

Rape [25] = assay: post-emergence herbicide test; details: post-emergence, 0.25 lb/A; read-out: % plant inhibition
Outline: as §2

Wheat [26] = assay: post-emergence herbicide test; details: Triticum aestivum, post-emergence, 0.25 lb/A; read-out: % plant inhibition
Outline: as §2

Soybean [27] = assay: post-emergence herbicide test; details: Glycine max, post-emergence, 0.25 lb/A; read-out: % plant inhibition
Outline: as §2

Green Foxtail [28] = assay: post-emergence herbicide test; details: Setaria viridis, post-emergence, 0.25 lb/A; read-out: % plant inhibition
Outline: as §2

Seedling Johnsongrass [29] = assay: post-emergence herbicide test; details: Sorghum halepense, post-emergence, 0.25 lb/A; read-out: % plant inhibition
Outline: as §2

Bedstraw Catchweed [30] = assay: post-emergence herbicide test; details: Galium aparine, post-emergence, 0.25 lb/A; read-out: % plant inhibition
Outline: as §2

Barnyardgrass [31] = assay: post-emergence herbicide test; details: Echinochloa crus-galli, post-emergence, 0.25 lb/A; read-out: % plant inhibition
Outline: as §2

Giant Foxtail [32] = assay: post-emergence herbicide test; details: Setaria faberi, post-emergence, 0.25 lb/A; read-out: % plant inhibition
Outline: as §2

Morning Glory [33] = assay: post-emergence herbicide test; details: Ipomoea, post-emergence, 0.25 lb/A; read-out: % plant inhibition
Outline: as §2

Wild Oats [34] = assay: post-emergence herbicide test; details: Avena fatua, post-emergence, 0.25 lb/A; read-out: % plant inhibition
Outline: as §2

CCOC(=O)CCCOC(=O)c1cc(-c2nn(C)c(C(F)(F)F)c2C)c(F)cc1Cl [Compound 24]
inhibition at 280.212 g/ha (Cocklebur [1]): 40%
inhibition at 280.212 g/ha (Velvetleaf [2]): 60%
inhibition at 280.212 g/ha (Corn [3]): 0%
inhibition at 280.212 g/ha (Downy Brome [4]): 30%
inhibition at 280.212 g/ha (Birdseye Speedwell [5]): 100%
inhibition at 280.212 g/ha (Blackgrass [6]): 50%
inhibition at 280.212 g/ha (Common Chickweed [7]): 100%
inhibition at 280.212 g/ha (Rape [8]): 95%
inhibition at 280.212 g/ha (Wheat [9]): 7%
inhibition at 280.212 g/ha (Soybean [10]): 0%
inhibition at 280.212 g/ha (Green Foxtail [11]): 100%
inhibition at 280.212 g/ha (Seedling Johnsongrass [12]): 10%
inhibition at 280.212 g/ha (Bedstraw Catchweed [13]): 95%
inhibition at 280.212 g/ha (Barnyardgrass [14]): 20%
inhibition at 280.212 g/ha (Giant Foxtail [15]): 35%
inhibition at 280.212 g/ha (Morning Glory [16]): 0%
inhibition at 280.212 g/ha (Wild Oats [17]): 15%
inhibition at 280.212 g/ha (Cocklebur [18]): 85%
inhibition at 280.212 g/ha (Velvetleaf [19]): 99%
inhibition at 280.212 g/ha (Corn [20]): 10%
inhibition at 280.212 g/ha (Downy Brome [21]): 25%
inhibition at 280.212 g/ha (Birdseye Speedwell [22]): 95%
inhibition at 280.212 g/ha (Blackgrass [23]): 25%
inhibition at 280.212 g/ha (Common Chickweed [24]): 90%
inhibition at 280.212 g/ha (Rape [25]): 25%
inhibition at 280.212 g/ha (Wheat [26]): 20%
inhibition at 280.212 g/ha (Soybean [27]): 45%
inhibition at 280.212 g/ha (Green Foxtail [28]): 20%
inhibition at 280.212 g/ha (Seedling Johnsongrass [29]): 20%
inhibition at 280.212 g/ha (Bedstraw Catchweed [30]): 65%
inhibition at 280.212 g/ha (Barnyardgrass [31]): 15%
inhibition at 280.212 g/ha (Giant Foxtail [32]): 15%
inhibition at 280.212 g/ha (Morning Glory [33]): 75%
inhibition at 280.212 g/ha (Wild Oats [34]): 25%
